# pIC50: −log10 of the molar value.
# Target: T1, Bet bromodomain protein (BRD4) (Homo sapiens, UniProt O60885)
# T1 construct: made in house
# Experiment: Bet bromodomain TR-FRET assay
# Type: binding
# Conditions: 300 nM acetyl histone peptide substrate, results given as Group A/B/C
# Procedure: In-Vitro Biochemical Data of bicyclic heterocyclic derivatives in time-resolved fluorescence resonance energy transfer (TR-FRET) assay.
# The Bet brommodomain TR-FRET assay has been used to identify compounds that bind to bet bromodomain and prevent its interaction with acetylated histone peptides.
# In the assay, optimized concentration of in-house Bet bromodomain protein (BRD4) and 300 nM of acetyl histone peptide substrate were diluted in assay buffer (50 mM HEPES, pH: 7.5, 50 mM NaCl, 500 μM CHAPS) and were added to the positive control and test control wells in a 384 well plate. Substrate control wells have 300 nM of acetyl histone peptide substrate diluted in assay buffer. Buffer blank wells were added with assay buffer. The reaction mixture was allowed for incubation at room temperature for 30 mins. Stock solutions of test compounds at 20 mM DMSO are prepared. Compounds are serially diluted and added to the test wells in 384-well polypropylene plates. The reaction mixture was further incubated for 30 mins at room temperature on a plate shaker. 2 nM of Europium labeled streptavidn and 10 nM of XL-665 labeled antibody diluted in detection buffer (50 mM HEPES, pH: 7.5, 50 mM NaCl, 500 μM CHAPS and 800 mM KF) were added to all the wells excluding the buffer blank wells. The reaction plate was incubated for additional 30 mins at room temperature on plate shaker. The plate was read in Perkin Elmer WALLAC 1420 Multilabel Counter Victor 3 (Ex: 340 nm Em: 615 and 665 nm). The amount of displacement of the peptide was measured as ratio of specific 665 nm energy transfer signal to 615 nm signals. The compounds IC50 was determined by fitting the dose response data to sigmoid curve fitting equation using Graph Pad Prism software V5.
row,Structure (SMILES),pIC50
1,"COc1cc2c(ccc(=O)n2CCN2CCOCC2)cc1-c1c(C)noc1C [Compound 38, 6-(3,5-dimethylisoxazol-4-yl)-7-methoxy-1-(2-morpholinoethyl)quinolin-2(1H)-one]",≥ 6.00
2,"COc1cc2c(ccc(=O)n2C(C)c2ccccn2)cc1-c1c(C)noc1C (stereo not drawn) [Compound 40, 6-(3,5-dimethytisoxazol-4-yl)-7-methoxy-1-(1-(pyridin-2-yl)ethyl)quinolin-2(1H)-one]",≥ 6.00
3,"COc1cc2c(ccc(=O)n2C(C)c2cccnc2)cc1-c1c(C)noc1C (stereo not drawn) [Compound 41, 6-(3,5-dimethylisoxazol-4-yl)-7-methoxy-1-(1-(pyridin-3-yl)ethyl)quinolin-2(1H)-one]",≥ 6.00
4,"COc1cc2c(ccc(=O)n2CCc2ccccn2)cc1-c1c(C)noc1C [Compound 42, 6-(3,5-dimethylisoxazol-4-yl)-7-methoxy-1-(2-(pyridin-2-yl)ethyl)quinolin-2(1H)-one]",5.52 to 6.00
5,"COc1cc2c(ccc(=O)n2Cc2ncccn2)cc1-c1c(C)noc1C [Compound 43, 6-(3,5-dimethylisoxazol-4-yl)-7-methoxy-1-(pyrimidin-2-ylmethyl)quinolin-2(1H)-one]",≥ 6.00
6,"COc1cc2c(ccc(=O)n2Cc2ccncn2)cc1-c1c(C)noc1C [Compound 44, 6-(3,5-dimethylisoxazol-4-yl)-7-methoxy-1-(pyrimidin-4-ylmethyl)quinolin-2(1H)-one]",≥ 6.00
7,"COc1cc2c(ccc(=O)n2Cc2ccccn2)cc1-c1c(C)noc1C [Compound 46, 6-(3,5-dimethylisoxazol-4-yl)-7-methoxy-1-(pyridin-2-ylmethyl)quinolin-2(1H)-one]",≥ 6.00
8,"COc1cc2c(ccc(=O)n2Cc2ccc(C(F)(F)F)cn2)cc1-c1c(C)noc1C [Compound 47, 6-(3,5-dimethylisoxazol-4-yl)-7-methoxy-1-((5-(trifluoromethyl)pyridin-2-yl)methyl)quinolin-2(1H)-one]",≥ 6.00
9,"COc1cc2c(cc1-c1c(C)noc1C)c(C(F)(F)F)cc(=O)n2Cc1ccccn1 [Compound 54, 6-(3,5-dimethytisoxazol-4-yl)-7-methoxy-1-(pyridin-2-ylmethyl)-4-(trifluoromethyl)quinolin-2(1H)-one]",< 5.52
10,"COc1cc2c(cc1-c1c(C)noc1C)c(C1CC1)cc(=O)n2Cc1ccccn1 [Compound 55, 4-cyclopropyl-6-(3,5-dimethytisoxazol-4-yl)-7-methoxy-1-(pyridin-2-ylmethyl)quinolin-2(1H)-one]",≥ 6.00
11,"COc1cc2c(ccc(=O)n2Cc2ccc3ccccc3n2)cc1-c1c(C)noc1C [Compound 57, 6-(3,5-dimethylisoxazol-4-yl)-7-methoxy-1-(quinolin-2-ylmethyl)quinolin-2(1H)-one]",5.52 to 6.00
12,"COc1cc2c(cc1-c1c(C)noc1C)cc(C)c(=O)n2CCc1ccc(Cl)cc1 [Compound 59, 1-(4-chlorophenethyl)-6-(3,5-dimethylisoxazol-4-yl)-7-methoxy-3-methylquinolin-2(1H)-one]",≥ 6.00
13,"COc1cc2c(ccc(=O)n2Cc2ccccn2)cc1-c1ccc(O)nc1 [Compound 61, 6-(6-hydroxypyridin-3-yl)-7-methoxy-1-(pyridin-2-ylmethyl)quinolin-2(1H)-one]",< 5.52
14,"COc1cc2c(ccc(=O)n2Cc2ccccn2)cc1-c1c(C2CC2)noc1C [Compound 62, 6-(3-cyclopropyl-5-methylisoxazol-4-yl)-7-methoxy-1-(pyridin-2-ylmethyl)quinolin-2(1H)-one]",≥ 6.00
15,"COc1cc2c(ccc(=O)n2Cc2ccccn2)cc1-c1cnoc1C [Compound 63, 7-methoxy-6-(5-methylisoxazol-4-yl)-1-(pyridin-2-ylmethyl)quinolin-2(1H)-one]",< 5.52
16,"COc1cc2c(ccc(=O)n2Cc2ccccn2)cc1-c1conc1C [Compound 64, 7-methoxy-6-(3-methylisoxazol-4-yl)-1-(pyridin-2-ylmethyl)quinolin-2(1H)-one]",≥ 6.00
17,"COc1cc2c(ccc(=O)n2Cc2ccccn2)cc1-c1c(C)n[nH]c1C [Compound 66, 6-(3,5-dimethyl-1H-pyrazol-4-yl)-7-methoxy-1-(pyridin-2-ylmethyl)quinolin-2(1H)-one]",≥ 6.00

# Other lines, results leading:
row,pIC50,Structure (SMILES)
1,5.52 to 6.00,"COc1ccc(CN2C(=O)COc3cc(-c4c(C)noc4C)c(OC)cc32)nc1 [Compound 30, 7-(3,5-dimethylisoxazol-4-yl)-6-methoxy-4-((5-methoxypyridin-2-yl)methyl)-2H-benzo[b][1,4]oxazin-3(4H)-one]"
2,5.52 to 6.00,COc1cc2c(cc1-c1c(C)noc1C)OCC(=O)N2C(C)c1ccccn1 (stereo not drawn) [Compound 31]
3,≥ 6.00,"COc1cc2c(cc1-c1c(C)noc1C)OCC(=O)N2Cc1ccc(C)nc1 [Compound 32, 7-(3,5-dimethylisoxazol-4-yl)-6-methoxy-4-((6-methylpyridin-3-yl)methyl)-2H-benzo[b][1,4]oxazin-3(4H)-one]"
4,5.52 to 6.00,"COc1cc2c(cc1-c1c(C)noc1C)OCC(=O)N2CCc1ccccn1 [Compound 35, 7-(3,5-dimethylisoxazol-4-yl)-6-methoxy-4-(2-(pyridin-2-yl)ethyl)-2H-benzo[b][1,4]oxazin-3(4H)-one]"
5,≥ 6.00,"COc1cc2c(ccc(=O)n2Cc2cccnc2)cc1-c1c(C)noc1C [Compound 36, 6-(3,5-dimethylisoxazol-4-yl)-7-methoxy-1-(pyridin-3-ylmethyl)quinolin-2(1H)-one]"
6,≥ 6.00,"COc1cc2c(ccc(=O)n2Cc2ccc(Cl)cn2)cc1-c1c(C)noc1C [Compound 37, 1-((5-chloropyridin-2-yl)methyl)-6-(3,5-dimethylisoxazol-4-yl)-7-methoxyquinolin-2(1H)-one]"
7,≥ 6.00,"COc1cc2c(ccc(=O)n2Cc2nccs2)cc1-c1c(C)noc1C [Compound 39, 6-(3,5-dimethylisoxazol-4-yl)-7-methoxy-1-(thiazol-2-ylmethyl)quinolin-2(1H)-one]"
8,≥ 6.00,"COc1cc2c(ccc(=O)n2Cc2ccc(F)cn2)cc1-c1c(C)noc1C [Compound 45, 6-(3,5-dimethylisoxazol-4-yl)-1-((5-fluoropyridin-2-yl)methyl)-7-methoxyquinolin-2(1H)-one]"
9,< 5.52,"COc1cc2c(cc1-c1c(C)noc1C)C(C)(C)CC(=O)N2Cc1ccccn1 [Compound 48, 6-(3,5-dimethylisoxazol-4-yl)-7-methoxy-4,4-dimethyl-1-(pyridin-2-ylmethyl)-3,4-dihydroquinolin-2(1H)-one]"
10,≥ 6.00,"COc1cc2c(cc1-c1c(C)noc1C)OC(C)(C)C(=O)N2Cc1cccnc1 [Compound 49, 7-(3,5-dimethylisoxazol-4-yl)-6-methoxy-2,2-dimethyl-4-(pyridin-3-ylmethyl)-2H-benzo[b][1,4]oxazin-3(4H)-one]"
11,≥ 6.00,"COc1cc2c(cc1-c1c(C)noc1C)cc(C)c(=O)n2Cc1ccccn1 [Compound 50, 6-(3,5-dimethylisoxazol-4-yl)-7-methoxy-3-methyl-1-(pyridin-2-ylmethyl)quinolin-2(1H)-one]"
12,5.52 to 6.00,"COc1cc2c(cc1-c1c(C)noc1C)C(=O)C(C)(C)C(=O)N2Cc1ccccn1 [Compound 51, 6-(3,5-dimethylisoxazol-4-yl)-7-methoxy-3,3-dimethyl-1-(pyridin-2-ylmethyl)quinoline-2,4(1H,3H)-dione]"
13,< 5.52,"COc1cc2c(cc1-c1c(C)noc1C)CC(C)(C)C(=O)N2Cc1ccccn1 [Compound 52, 6-(3,5-dimethytisoxazol-4-yl)-7-methoxy-3,3-dimethyl-1-(pyridin-2-ylmethyl)-3,4-dihydroquinolin-2(1H)-one]"
14,5.52 to 6.00,"COc1cc2c(cc1-c1c(C)noc1C)c(C)cc(=O)n2Cc1ccccn1 [Compound 53, 6-(3,5-dimethylisoxazol-4-yl)-7-methoxy-4-methyl-1-(pyridin-2-ylmethyl)quinolin-2(1H)-one]"
15,≥ 6.00,"COc1cc2c(ccc(=O)n2Cc2ccc(Cl)cc2)cc1-c1c(C)noc1C [Compound 56, 1-(4-chlorobenzyl)-6-(3,5-dimethylisoxazol-4-yl)-7-methoxyquinolin-2(1H)-one]"
16,≥ 6.00,"COc1cc2c(cc1-c1c(C)noc1C)cc(C)c(=O)n2Cc1ccc(Cl)cn1 [Compound 58, 1-((5-chloropyridin-2-yl)methyl)-6-(3,5-dimethylisoxazol-4-yl)-7-methoxy-3-methylquinolin-2(1H)-one]"
17,< 5.52,"COc1cc2c(cc1-c1c(C)noc1C)OCC(=O)N2CC1CCNCC1 [Compound 60, 7-(3,5-dimethylisoxazol-4-yl)-6-methoxy-4-(piperidin-4-ylmethyl)-2H-benzo[b][1,4]oxazin-3(4H)-one]"
18,≥ 6.00,"COc1cc2c(cc1-c1c(C)n[nH]c1C)OCC(=O)N2Cc1ccc(Cl)cc1 [Compound 65, 4-(4-chlorobenzyl)-7-(3,5-dimethyl-1H-pyrazol-4-yl)-6-methoxy-2H-benzo[b][1,4]oxazin-3(4H)-one]"
19,≥ 6.00,"COc1cc2c(ccc(=O)n2Cc2ccc(Cl)nc2)cc1-c1c(C)noc1C [Compound 67, 1-((6-chloropyridin-3-yl)methyl)-6-(3,5-dimethylisoxazol-4-yl)-7-methoxyquinolin-2(1H)-one]"

# Reference: patent publication US10590118B2, “Bicyclic heterocyclic derivatives as bromodomain inhibitors” (Orion Corporation, priority 2014, dated 2020)
